Laboratory results as given in patent US20060177853A1, “Antidepressant drug target” (The Scripps Research Institute, priority 2005, published 2006).
“And” between values parts separate entries of the source, which are not always exact repeats. Equal entries are not always repeated. “Also recorded” adds a separate entry of the source. Where two headings read alike, the source gives them in different places. Square brackets hold non-standard residues; d marks the D form. Peptide text beside a SMILES is read from it. * marks the point of attachment. Fmoc = O=C(OCC1c2ccccc2-c2ccccc21)*; Cha = N[C@@H](CC1CCCCC1)C(=O)O; AMC = Cc1cc(=O)oc2cc(N*)ccc12

Tests used:
[1] = system: time spent active in forced swim test; assay: Forced swim test; type: in vivo, rat
Description: Rats underwent aseptic stereotaxic surgery under ketamine (100 mg/kg, i.p.) xylazine (10 mg/kg, i.p.) anesthesia. A guide cannula 1.4 cm in length, of 26 gauge stainless steel hypodermic tubing (Plastics One, St. Louis, Mo.) was implanted into the right lateral ventricle at coordinates 0.5 mm posterior, 1.0 mm lateral to bregma, and 3.5 mm ventral to the surface of the skull. A 31 gauge stylet was secured to the guide cannula following the surgery. After surgery, rats were given at least 8 days recovery before the start of behavioral testing.
Fluoxetine (FLX, Sigma, St. Louis, Mo.) was dissolved in saline and administered i.p. at a dose of 10 mg/kg daily for 14 days for biochemical studies. Separate groups of rats received daily i.p. injections of FLX or saline vehicle for 14 days for testing in the forced swim task. On day 14, rats were administered FLX or saline i.p. at 45 minutes prior to the forced swim test and M40 (Bachem, King of Prussia, Pa.) or ACSF i.c.v. at 15 minutes prior to the forced swim test (see methods below). Single i.c.v. microinjections of M40 (8 nmol/2 μl ACSF) or ACSF (2 μl) were performed with a 10 μl Hamilton syringe connected via Becton Dickinson polyethylene tubing (PE20) to a 1.5 cm injector (Plastics One) fabricated from 31 gauge hypodermic tubing. The animal was allowed to freely explore a small cage during the infusion of 2 μl over 1.5 minutes, with each 1 μl separated by ten seconds, and an additional sixty seconds before the injector was withdrawn from the guide cannula. The treatments consisted of equal numbers of rats receiving one of the following combinations of treatments: saline+ACSF, saline+M40, FLX+ACSF, or FLX+M40. Additional treatment groups (n=10 per group) were examined in a separate forced swim test 45 minutes after i.p. injection of one of the following: 50% DMSO (w/v), galnon (Vulpes, Estonia; dissolved in 50% DMSO), or desipramine (Sigma, St Louis, Mo., 15 mg/kg in 50% DMSO).
Forced swim test. Rats were placed singly in a cylindrical glass container (48 cm height, 21 cm diameter) with tap water (25° C.) to a depth of 27 cm and tested for 10 minutes. Water was changed and the cylinder thoroughly rinsed after each test. Tests were recorded on videotape and later scored by an experienced observer blind to the experimental conditions of the rats.
Data for forced swim test studies utilizing galnon and desipramine were subject to a one factor analysis of variance (ANOVA), with drug treatment as the between subjects factor. For the M40 FLX study, data were subject to a two factor between subjects design, with chronic drug treatment (FLX vs vehicle) and i.c.v. drug (M40 vs ACSF) as the main factors. Significant main effects were followed up with Fisher's LSD posthoc test to determine specific group differences.

[2] = system: locomotor activity (line crossing); assay: Open field test; type: in vivo, rat; settings: for locomotor activity in the open field (words): desipramine 15 mg/kg
Description: Drug treatments. […] Louis, Mo.) was dissolved in saline and administered i.p. at a dose of 10 mg/kg daily for 14 days for biochemical studies. Separate groups of rats received daily i.p. injections of FLX or saline vehicle for 14 days for testing in the forced swim task. On day 14, rats were administered FLX or saline i.p. at 45 minutes prior to the forced swim test and […] (Bachem, King of Prussia, Pa.) or […]. at 15 minutes prior to the forced swim test (see methods below). Single i.c.v. microinjections of M40 (8 nmol/2 μl ACSF) or ACSF (2 μl) were performed with a 10 μl Hamilton syringe connected via Becton Dickinson polyethylene tubing (PE20) to a 1.5 cm injector (Plastics One) fabricated from 31 gauge hypodermic tubing. The animal was allowed to freely explore a small cage during the infusion of 2 μl over 1.5 minutes, with each 1 μl separated by ten seconds, and an additional sixty seconds before the injector was withdrawn from the guide cannula. The treatments consisted of equal numbers of rats receiving one of the following combinations of treatments: saline+ACSF, saline+M40, FLX+ACSF, or FLX+[…]. […] One week after the forced swim test, rats were randomly assigned to treatment groups. […] Forty five minutes after injection, rats were subjected to the open field test. Open field test. One week after the forced swim test, rats were randomly assigned to treatment groups. […] The apparatus consisted of a square arena (100 by 100 cm), with a 40 cm high opaque white wall. The floor was marked into 9 equal segments and fluorescent light provided diffuse overhead illumination. Locomotor activity over 5 minutes was recorded on videotape. Tapes were later scored blind to the experimental condition of the animals. Line crossing behavior (defined as at least three paws in a square) was tallied and compared between experimental conditions.

[3] = system: time spent active in forced swim test; settings: dose that suppresses status epilepticus; Bartfai et al. 2004; cited from earlier work
[4] = molecular target: T1, rat GalR2 (Rattus norvegicus, UniProt O08726); assay: Displacement of [125I]galanin binding from membranes of GalR2-expressing cells; settings: data not shown
T1 construct: expressed in transfected cells; host or cells: CHO cells, stably transfected
T1 sequence (O08726 1-372): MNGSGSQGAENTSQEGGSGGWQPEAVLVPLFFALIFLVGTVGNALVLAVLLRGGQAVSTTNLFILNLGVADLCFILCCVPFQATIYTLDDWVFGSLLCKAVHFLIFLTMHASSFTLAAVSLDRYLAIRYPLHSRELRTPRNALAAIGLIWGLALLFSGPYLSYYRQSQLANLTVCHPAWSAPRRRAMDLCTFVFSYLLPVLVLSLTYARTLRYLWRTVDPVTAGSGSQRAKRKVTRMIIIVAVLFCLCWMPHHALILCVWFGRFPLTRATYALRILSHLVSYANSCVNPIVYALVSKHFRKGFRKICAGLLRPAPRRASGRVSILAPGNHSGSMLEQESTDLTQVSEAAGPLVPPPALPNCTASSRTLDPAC
Text: Cell lines. Stably transfected Chinese Hamster Ovary (CHO) cells expressing rat GalR2, and Bowes' melanoma cells that express human GalR1, were cultivated as described earlier (Wang, S., et al. Biochemistry 1998, 37, 6711-7; and Heuillet, E., et al. Eur. J. Pharmacol. 1994, 269, 139-47).
Membrane preparation and binding assay. DRN and LC were dissected from a total of 16 rats per group and samples from 4 animals were pooled. Rat brain synaptic membranes (Lu, X., et al. Neurosci. Lett. 2000, 286, 149-53) and cells were prepared as previously described (Heuillet, E., et al. Eur. J. Pharmacol. 1994, 269, 139 47). Equilibrium binding of ^125I, galanin (2200 Ci/mmol, PerkinElmer Life Science, Boston, Mass.) to hippocampal membrane preparations was performed in 150 μL binding buffer [50 mM Tris Cl (pH 7.4), 5 mM MgCl2, 0.05 % (w/v) bovine serum albumin, supplemented with protease inhibitors]. Incubations were at room temperature for 45 minutes and terminated by rapid filtration through glass fiber filters (Packard, Meriden, Conn.). After three washes with cold PBS (pH 7.4) containing 0.01 % (v/v) Triton X 100, the filter was counted with Cobra II auto Gamma counting systems (Parkard Bioscience, Downer Grove, Ill.).

[5] = system: withdrawal signs; settings: Zachariou et al. 2003, cited from earlier work
[6] = system: seizures; settings: Saar et al. 2002; cited from earlier work
[7] = system: galanin mRNA; assay: Quantitative real time PCR of galanin mRNA in rat brain regions after treatment; type: in vivo
Description: (§1) Tissue dissections. Tissues used for RNA extraction or binding study were rapidly dissected after sacrifice and immediately frozen on dry ice. All dissections were performed by an experienced neuroanatomist with a rat brain slicer and for small structures, like LC and DRN, the punching method was used to assure reproducible dissection.
Quantitative real time PCR. Brain tissues obtained from 12 rats (DRN, LC, paraventricular nucleus of hypothalamus) or 6 rats (prefrontal cortex, amygadala, hippocampus) were pooled and total RNA was prepared with Trizol reagent (Invitrogen, Carlsbad, Calif.) following manufacturer's instructions. For galanin mRNA quantification in DRN and LC after FLX treatment, the experiment was repeated with 3 independent pools of 4 rats per treatment per brain region. Aliquots of total RNA (2 μg) and oligo(dT) primers were then reverse transcribed with ThermoScript RT (Invitrogen) at 51° C. for 60 minutes. Quantitative PCR was performed using a Roche LightCycler and LightCycler Fast Start DNA Master SYBR Green I mix (Roche Applied Science, Indianapolis, Ind.). […] Real time PCR assays included an initial 10 minutes, 94° C. step to activate Taq polymerase, followed by 35 cycles of denaturation 94° C., 10 seconds, annealing 58° C., 10 seconds, and extension 72° C., 25 seconds. The results were expressed in arbitrary units normalized by the expression levels of the reference gene, β-actin.
Drug treatments. Fluoxetine (FLX, Sigma, St. Louis, Mo.) was dissolved in saline and administered i.p. at a dose of 10 mg/kg daily for 14 days for biochemical studies. Separate groups of rats received daily i.p. injections of FLX or saline vehicle for 14 days for testing in the forced swim task. On day 14, rats were administered FLX or saline i.p. at 45 minutes prior to the forced swim test and M40 (Bachem, King of Prussia, Pa.) or ACSF i.c.v. at 15 minutes prior to the forced swim test (see methods below). Single i.c.v. microinjections of M40 (8 nmol/2 μl ACSF) or ACSF (2 μl) were performed with a 10 μl Hamilton syringe connected via Becton Dickinson polyethylene tubing (PE20) to a 1.5 cm injector (Plastics One) fabricated from 31 gauge hypodermic tubing. The animal was allowed to freely explore a small cage during the infusion of 2 μl over 1.5 minutes, with each 1 μl separated by ten seconds, and an additional sixty seconds before the injector was withdrawn from the guide cannula. The treatments consisted of equal numbers of rats receiving one of the following combinations of treatments: saline+ACSF, saline+M40, FLX+ACSF, or FLX+M40. […] One week after the forced swim test, rats were randomly assigned to treatment groups. Rats were treated with vehicle, galnon or desipramine. Forty five minutes after injection, rats were subjected to the open field test.

[8] = system: GalR2 sites; assay: GalR2 binding sites in brain tissue after treatment, saturating [125I]galanin binding with galanin (2-11) as competitor; type: in vivo, rat; settings: FLX 10 mg/kg i.p. 14 days
Description: as §1
(§2) Membrane preparation and binding assay. DRN and LC were dissected from a total of 16 rats per group and samples from 4 animals were pooled. […] Incubations were at room temperature for 45 minutes and terminated by rapid filtration through glass fiber filters (Packard, Meriden, Conn.). After three washes with cold PBS (pH 7.4) containing 0.01 % (v/v) Triton X 100, the filter was counted with Cobra II auto Gamma counting systems (Parkard Bioscience, Downer Grove, Ill.).
(§3) Neurol. […] Anxiety 2000, 12, 170-7; Nolen, W. A., et al. Int. Clin. Psychopharmacol. […] Neurol. […] As GalR3 is not abundant in the regions tested, GalR1 sites were estimated by subtracting GalR2 sites from the sum of GalR1 and GalR2 receptor sites. […] Neurol.
(§4) Drug treatments. Fluoxetine (FLX, Sigma, St. Louis, Mo.) was dissolved in saline and administered i.p. at a dose of 10 mg/kg daily for 14 days for biochemical studies. Separate groups of rats received daily i.p. injections of FLX or saline vehicle for 14 days for testing in the forced swim task. […]

[9] = system: GalR1 sites; assay: GalR1 binding sites in brain tissue after treatment, total galanin-binding sites minus GalR2 sites; type: in vivo; settings: rat DRN, FLX 10 mg/kg i.p. 14 days
Description: as §1, §2, §3, §4

Which “activity in the forced swim test” value ([1]; desipramine 15 mg/kg i.p., positive control) does the source give for `CNCCCN1c2ccccc2CCc2ccccc21` [desipramine] here?
The value was “significantly increased activity”.

What about the “increase in activity in the forced swim test” value ([1]; desipramine 15 mg/kg i.p., positive control, p<0.001) of the same compound?
The value was 125%.

And the “locomotor activity in the open field (words)” value ([2]; p<0.01)?
Its value is “significantly reduced activity”.

And the “locomotor activity in the open field (words)” value ([2]; p<0.01, listed as Desipramine)?
Its value is “significant reduction”.

Which “effect in the forced swim test” value [3] does the source give for `COC(=O)[C@H](CCCCN)NC(=O)[C@]1(C)NC(=O)c2nc(oc2C)[C@](C)(C(=O)NC2c3ccccc3-c3ccccc32)NC(=O)c2nc(oc2C)[C@](C)(C(=O)NCC2CCCCC2)NC(=O)c2nc1oc2C` [galmic] here?
The value was “antidepressant like effect”.

What does the source list for `Cc1cc(=O)oc2cc(NC(=O)[C@H](CCCCN)NC(=O)[C@H](CC3CCCCC3)NC(=O)OCC3c4ccccc4-c4ccccc43)ccc12` [galnon] (Fmoc-[Cha]-Lys-{AMC})?
Ki [4]: 34.1 µM; increase in activity in the forced swim test ([1]; galnon 20 mg/kg i.p., p<0.05): significant; increase in activity in the forced swim test ([1]; galnon 40 mg/kg i.p., p<0.01): significant; activity in the forced swim test ([1]; galnon 1-40 mg/kg i.p., 45 minutes after injection): significant increase; also recorded: dose dependent increase; activity in the open field ([2]; galnon 20 mg/kg, p<0.01): significantly reduced; activity in the open field ([2]; galnon 40 mg/kg, p<0.05): significantly reduced; activity in the open field ([2]; higher doses of galnon, P<0.05 vs control): significantly reduced activity; effect on withdrawal signs (words) [5]: attenuate several withdrawal signs; effect on withdrawal signs (words) ([5]; listed as Galnon): inhibit signs of opiate withdrawal; latency of phenyleneterazol induced seizures [6]: increase the latency

Which results are given for `CNCCC(Oc1ccc(C(F)(F)F)cc1)c1ccccc1` (stereo not shown) [FLX, fluoxetine]?
increase in galanin mRNA levels in DRN ([7]; rat DRN, FLX 10 mg/kg i.p. 14 days): 100%; increase in galanin mRNA levels in DRN ([7]; rat DRN, FLX 10 mg/kg i.p. 14 days, pooled samples): 2 fold; effect on galanin mRNA in DRN ([7]; rat DRN, FLX 14 days, three independent pools, P<0.05 vs Ctrl): increased galanin mRNA; increase in galanin mRNA levels in LC ([7]; rat LC, FLX 10 mg/kg i.p. 14 days, pooled samples): 2.2 fold; effect on galanin mRNA in LC ([7]; rat LC, FLX 14 days): increased galanin mRNA; increase in number of GalR2 binding sites in DRN ([8]; rat DRN): 50% and 58%; effect on GalR2 sites in LC ([8]; rat LC): not in LC; effect on number of GalR1 binding sites in DRN [9]: without changes; also recorded: unaltered; increase in time spent active in the forced swim test vs saline-pretreated rats ([1]; FLX 10 mg/kg i.p. 14 days, 10 minute test, P<0.05): ~46%; time spent active in the forced swim test ([1]; FLX 10 mg/kg i.p. 14 days, FLX+ACSF vs Saline+ACSF, p<0.05): significant increase
